The values that follow come from article PMC6121230 (International Journal of Molecular Sciences, 2018).

Among the test systems are VpPLD-(His)6-WT; (His)6-VpPLD-Δ451-487; (His)6-VpPLD-Δ469-487; (His)6-VpPLD-Δ434-487; VpPLD-(His)6-Δ1-25; VpPLD-(His)6-Δ1-34.
Holding throughout (conditions): 50 mM Tris pH 8.0; lipid monolayer, interfacial binding (not a 1:1 site)
The subject of experiment [1] is (His)6-VpPLD-WT.
The test system of experiment [2] is (His)6-VpPLD-WT. This is another data set of the same source.

Molecules are shown by their SMILES.

On to `CCCCCCCCCCCCCC(=O)OC[C@H](COP(=O)(O)OCC(O)CO)OC(=O)CCCCCCCCCCCCC` (mixture of isomers) [DMPG, 1,2-Dimyristoyl-sn-glycero-3-phospho-rac-glyceol], for which the MIP in the experiment on VpPLD-(His)6-WT was 26.8 ± 0.9 mN m^-1. Further, in the experiment with (His)6-VpPLD-WT [1], the synergy factor a is 0.29 ± 0.03.
Regarding `CCCCCCCCCCCCCC(=O)OC[C@H](COP(=O)([O-])OCC[N+](C)(C)C)OC(=O)CCCCCCCCCCCCC` [DMPC, 1,2-Dimyristoyl-sn-glycero-3-phosphocholine], the MIP is given as 37.4 ± 1.3 mN m^-1 with VpPLD-(His)6-WT, 34.9 ± 3.7 mN m^-1 in the experiment with (His)6-VpPLD-Δ451-487, 29.6 ± 2.6 mN m^-1 in the experiment on (His)6-VpPLD-WT [2] and 29.8 ± 1.8 mN m^-1 in the experiment with (His)6-VpPLD-Δ469-487.
As to `CCCCCCCCCCCCCC(=O)OC[C@H](COP(=O)(O)OCCN)OC(=O)CCCCCCCCCCCCC` [DMPE, 1,2-Dimyristoyl-sn-glycero-3-phosphoethanolamine], the MIP in the experiment on VpPLD-(His)6-WT came out at 29.8 ± 2.8 mN m^-1; with (His)6-VpPLD-Δ434-487 it was 45.1 ± 2.8 mN m^-1; in the experiment on VpPLD-(His)6-Δ1-25 it was 39.4 ± 6.2 mN m^-1; in the experiment with VpPLD-(His)6-Δ1-34 it was 47.8 ± 8.7 mN m^-1; in the experiment with (His)6-VpPLD-WT [2], 32.8 ± 3.7 mN m^-1; in the experiment with (His)6-VpPLD-Δ469-487, 26.2 ± 2.7 mN m^-1.
With `CCCCCCCCCCCCCC(=O)OC[C@H](COP(=O)(O)OC[C@H](N)C(=O)O)OC(=O)CCCCCCCCCCCCC` [DMPS, 1,2-Dimyristoyl-sn-glycero-3-phospho-L-serine], the MIP in the experiment on VpPLD-(His)6-WT was 38.5 ± 2.7 mN m^-1; in the experiment on (His)6-VpPLD-Δ434-487, 40.4 ± 4.6 mN m^-1; in the experiment with VpPLD-(His)6-Δ1-25 it was 30.4 ± 3.2 mN m^-1; in the experiment with (His)6-VpPLD-Δ451-487 it was 36.4 ± 2.1 mN m^-1; with VpPLD-(His)6-Δ1-34, 36.5 ± 2.7 mN m^-1; in the experiment with (His)6-VpPLD-WT [2] it was 34.8 ± 0.6 mN m^-1.
